From US9255132B2, “Angiopoietin derived peptides” (Compugen Ltd., priority 2008, dated 2016)
Residues, ends and D or L forms follow the SMILES beside them.

How the values were obtained:
human Ang4 = target: T1, human Ang4 (Homo sapiens, UniProt Q9Y264); test: BIACORE (SPR) binding of peptides to immobilized recombinant Ang4; details: CM5 chip, 10-50 μM peptide
T1 construct: purchased R&D Systems 964-AN-025/CF
T1 sequence (Q9Y264 25-503): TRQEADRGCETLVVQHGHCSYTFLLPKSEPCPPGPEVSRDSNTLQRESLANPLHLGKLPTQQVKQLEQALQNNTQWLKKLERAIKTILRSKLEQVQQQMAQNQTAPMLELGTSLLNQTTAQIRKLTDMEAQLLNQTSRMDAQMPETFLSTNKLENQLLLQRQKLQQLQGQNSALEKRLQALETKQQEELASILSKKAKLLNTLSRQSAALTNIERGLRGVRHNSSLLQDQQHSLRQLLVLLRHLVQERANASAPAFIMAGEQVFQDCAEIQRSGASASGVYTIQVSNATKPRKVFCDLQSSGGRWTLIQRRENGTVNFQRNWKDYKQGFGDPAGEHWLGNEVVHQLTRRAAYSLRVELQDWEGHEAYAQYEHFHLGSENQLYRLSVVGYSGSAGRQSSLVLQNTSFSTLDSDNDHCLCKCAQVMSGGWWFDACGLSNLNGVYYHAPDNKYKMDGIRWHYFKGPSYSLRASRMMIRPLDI
Excerpt: (§1) The capability of CGEN-H2 [SEQ ID NO: 1], CGEN-H3 [SEQ ID NO: 2], CGEN-A8 [SEQ ID NO: 3], CGEN-H7 [SEQ ID NO: 4], CGEN-G4 [SEQ ID NO: 5], CGEN-G6 [SEQ ID NO: 6], CGEN-F9 [SEQ ID NO: 7], CGEN-F12 [SEQ ID NO: 8], CGEN-C6-30 [SEQ ID NO: 9], CGEN-All [SEQ ID NO: 10], and CGEN-G2 [SEQ ID NO: 11] to specifically bind to recombinant Ang1, Ang2, and Ang4 was investigated using the BIACORE technology, measuring protein-protein interaction and binding affinity (Wendler et al 2005, Anal Bioanal Chem, 381: 1056-1064). The technology is based on surface plasmon resonance (SPR), an optical phenomenon that enables detection of unlabeled interactants in real time. The SPR-based biosensors can be used in determination of active concentration, screening and characterization in terms of both affinity and kinetics.
(§2) Peptide-protein binding was analyzed using surface plasmon resonance. Analysis of the to interaction between CGEN-H2 [SEQ ID NO: 1], CGEN-H3 [SEQ ID NO: 2], CGEN-A8 [SEQ ID NO: 3], CGEN-H7 [SEQ ID NO: 4], CGEN-G4 [SEQ ID NO: 5], CGEN-G6 [SEQ ID NO: 6], CGEN-F9 [SEQ ID NO: 7], CGEN-F12 [SEQ ID NO: 8], CGEN-C6 [SEQ ID NO: 9], CGEN-A11 [SEQ ID NO: 10], and CGEN-G2 [SEQ ID NO: 11] peptides and recombinant human Ang1 carrier-free (R&D Systems, Cat#923-AN-025/CF, Lot#FHW1507031), human Ang2 carrier-free (R&D Systems, Cat#623-AN-025/CF, Lot#BNO0457121), and human Ang4 carrier-free (R&D Systems, Cat#964-AN-025/CF, Lot#ELM025121) was conducted using the BIAcore biosensor (Pharmacia Biosensor, Uppsala, Sweden). The recombinant Ang1, Ang2, and Ang4 were immobilized directly to a CM5 sensor chip. Solutions containing 10-50 μM of CGEN-H2 [SEQ ID NO: 1], CGEN-H3 [SEQ ID NO: 2], CGEN-A8 [SEQ ID NO: 3], CGEN-H7 [SEQ ID NO: 4], CGEN-G4 [SEQ ID NO: 5], CGEN-G6 [SEQ ID NO: 6], CGEN-F9 [SEQ ID NO: 7], CGEN-F12 [SEQ ID NO: 8], CGEN-C6 [SEQ ID NO: 9], CGEN-A11 [SEQ ID NO: 10], and CGEN-G2 [SEQ ID NO: 11] peptides were injected into the sample chamber of the BIACORE device at a rate of […] and the interaction was monitored using surface plasmon resonance.
(§3) Solutions containing different concentrations of CGEN-G6 [SEQ ID NO: 6], CGEN-F9 [SEQ ID NO: 7], CGEN-F12 [SEQ ID NO: 8], CGEN-A11 [SEQ ID NO: 10], and CGEN-G2 [SEQ ID NO: 11] peptides (as indicated in Table 2) were injected into the sample chamber of the BIACORE device at a rate of […] and the interaction was monitored using surface plasmon resonance. As a background, the solutions were also injected onto an empty flow cell with no immobilized ligand and the in binding levels achieved were subtracted. Data was analyzed using BIAevaluation software. The affinity constant of the interaction between CGEN-G6 [SEQ ID NO: 6], CGEN-F9 [SEQ ID NO: 7], CGEN-F12 [SEQ ID NO: 8], CGEN-C6 [SEQ ID NO: 9], CGEN-A11 [SEQ ID NO: 10], and CGEN-G2 [SEQ ID NO: 11] and Ang1, Ang2, or Ang4 was determined by direct kinetic analysis. The 1:1 Langmuir binding model was used to fit kinetic data.
(§4) Table 2 summarizes results of analysis of CGEN-G6 [SEQ ID NO: 6], CGEN-F9 [SEQ ID NO: 7], CGEN-F12 [SEQ ID NO: 8], CGEN-A11 [SEQ ID NO: 10], and CGEN-G2 [SEQ ID NO: 11] interaction with Ang1, Ang2, or Ang4. Kinetic measurements were done at the indicated concentration range, and they are presented as KD (M). CGEN-F12 [SEQ ID NO: 8] bound to Ang1 and Ang4 with high affinity. The specificity of this binding is not clear.

human Ang2 = target: T2, human Ang2 (Homo sapiens, UniProt O15123); test: BIACORE (SPR) binding of peptides to immobilized recombinant Ang2; details: CM5 chip, 10-50 μM peptide
T2 construct: purchased R&D Systems 623-AN-025/CF
T2 sequence (O15123 19-496): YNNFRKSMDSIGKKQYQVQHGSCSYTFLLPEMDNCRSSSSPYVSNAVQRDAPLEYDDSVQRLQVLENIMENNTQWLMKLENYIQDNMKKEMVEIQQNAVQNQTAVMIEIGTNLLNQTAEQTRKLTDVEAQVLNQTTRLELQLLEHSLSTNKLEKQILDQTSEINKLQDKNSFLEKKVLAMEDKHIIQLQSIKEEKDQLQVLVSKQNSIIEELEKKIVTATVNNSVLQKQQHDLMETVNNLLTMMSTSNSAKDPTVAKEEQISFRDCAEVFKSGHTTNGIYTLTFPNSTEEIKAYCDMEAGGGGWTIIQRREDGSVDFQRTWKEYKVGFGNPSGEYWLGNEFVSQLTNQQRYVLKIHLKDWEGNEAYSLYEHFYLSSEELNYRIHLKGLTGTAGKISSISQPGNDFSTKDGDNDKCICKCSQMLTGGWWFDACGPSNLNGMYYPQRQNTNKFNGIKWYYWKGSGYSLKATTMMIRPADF
Excerpt: as §1, §2, §3, §4

| binding to immobilized Ang4 (in words) (human Ang4) | binding to immobilized Ang2 (in words) (human Ang2) | SMILES |
| --- | --- | --- |
| capable of binding | capable of binding | CC(=O)N[C@@H](CCC(=O)O)C(=O)N[C@H](C(=O)N[C@@H](Cc1ccccc1)C(=O)N[C@@H](CC(C)C)C(=O)N[C@@H](CO)C(=O)N[C@H](C(=O)N[C@@H](CC(N)=O)C(=O)N[C@@H](CCCCN)C(=O)N[C@@H](CC(C)C)C(=O)N[C@@H](CCC(=O)O)C(=O)N[C@@H](CC(N)=O)C(=O)N[C@@H](CCC(N)=O)C(N)=O)[C@@H](C)O)[C@@H](C)O [CGEN-A11, ETFLSTNKLENQ] (Ac-ETFLSTNKLENQ-NH2) |
| capable of binding | capable of binding | CSCC[C@H](NC(=O)[C@H](CC(C)C)NC(=O)[C@H](CC(=O)O)NC(C)=O)C(=O)N[C@@H](CCC(=O)O)C(=O)N[C@H](C(=O)N[C@H](C(=O)N[C@@H](CC(N)=O)C(=O)N[C@@H](CC(N)=O)C(=O)N[C@@H](CC(C)C)C(=O)N[C@@H](CC(C)C)C(=O)N[C@H](C(=O)N[C@@H](CCSC)C(=O)N[C@@H](CCSC)C(=O)N[C@@H](CO)C(=O)N[C@H](C(=O)N[C@@H](CO)C(=O)N[C@@H](CC(N)=O)C(=O)N[C@@H](CO)C(=O)N[C@@H](C)C(=O)N[C@@H](CCCCN)C(=O)N[C@@H](CC(=O)O)C(N)=O)[C@@H](C)O)[C@@H](C)O)C(C)C)[C@@H](C)O [CGEN-G6] (Ac-DLMETVNNLLTMMSTSNSAKD-NH2) |
| capable of binding | capable of binding | CC[C@H](C)[C@H](NC(=O)[C@H](C)NC(=O)[C@H](CCCNC(=N)N)NC(=O)[C@H](CCC(=O)O)NC(=O)[C@H](CC(C)C)NC(=O)[C@H](CCCCN)NC(=O)[C@H](CCCCN)NC(=O)[C@H](CC(C)C)NC(=O)[C@H](Cc1c[nH]c2ccccc12)NC(=O)[C@H](CCC(N)=O)NC(=O)[C@@H](NC(=O)[C@H](CC(N)=O)NC(=O)[C@H](CC(N)=O)NC(=O)[C@H](CCC(N)=O)NC(=O)[C@H](CC(C)C)NC(=O)[C@H](C)NC(=O)[C@H](CCC(N)=O)NC(=O)[C@H](CCC(=O)O)NC(=O)[C@H](CC(C)C)NC(=O)[C@H](CCC(N)=O)NC(=O)[C@H](CCCCN)NC(=O)[C@@H](NC(=O)[C@H](CCC(N)=O)NC(=O)[C@H](CCC(N)=O)NC(=O)[C@@H](NC(C)=O)[C@@H](C)O)C(C)C)[C@@H](C)O)C(=O)N[C@@H](CCCCN)C(=O)N[C@H](C(=O)N[C@H](C(=O)N[C@@H](CC(C)C)C(N)=O)[C@@H](C)CC)[C@@H](C)O [CGEN-G2] (Ac-TQQVKQLEQALQNNTQWLKKLERAIKTIL-NH2) |
